According to patent US20260258397A1, “REAGENTS AND SYSTEMS FOR […]” (priority 2023, published 2026):
Several values for one entry are separate records, joined by “and”; a condition that tells them apart may be missing. Equal values may be shown once. Read-outs that look alike come from different tables or passages of the source.

Assays:
[1] = tested on: PYR1 mutant receptors (ligand-dependent binding to HAB1); assay: Yeast two-hybrid screens and optimization for organophosphate sensors; type: cell-based, Arabidopsis
Description: Surviving cells were collected and used in subsequent positive selections for ligand-responsive receptors on SD,-Leu,-Trp,-Ura media supplemented with a specific test chemical (100 μM) for responsiveness to any of the 10-member panel of organophosphate compounds: diazinon, pirimiphos-methyl, azinphos-ethyl, dimethoate, chlorfenvinphos, disulfoton, parathion-methyl, bromophos-methyl, malathion, and monocrotophos; all compounds were purchased form (Sigma-Aldrich). Isolated colonies were tested by regrowth on ligand-containing media and by dose response using X-gal staining and Sanger sequenced (see FIG. 13a-d).
Recombination-based mutagenesis of hit receptors was used to generate subsequent molecular diversity for selection-based optimization experiments, using the same general strategy across all scaffolds utilized. […] The resulting shuffled DNA fragments were cloned into pBD, transformed into E. coli, colonies collected, and plasmids extracted.

[2] = Phosphatase activity of 6xHis-MBP-ΔN-HAB1 variants using p-NPP; type: biochemical; settings: error 1 SEM
From the text: FIG. 8: Assessment of stabilized, inactivated 6×His-MBP-ΔN-HAB1 variants. Experiments were repeated on two separate days using independently generated batches of protein. Error bars indicate 1 SD of 3 measurements. Sets of mutations for each variant are noted in Table 7. […] Fluorescence here refers to streptavidin-phycoerythrin.
(§1) Except where noted, all proteins were expressed as N-terminal 6×His-MBP fusions primarily using the medium and method as described in ref. 17. For crystallographic structures, PYL2 and ΔN-HAB1^T+ were expressed in E. coli and purified as described previously 27. Assays for phosphatase activity and apparent Tm, measured via thermal challenge using yeast surface display were performed essentially as previously described 17.

[3] = Apparent Tm of HAB1 variants by thermal challenge and yeast surface display of PYR1^M; type: physicochemical; settings: YSD of PYR1^M, 500 nM ABA, 20 nM HAB1 variant
Description: as §1
Citrate-buffered saline was first prepared (CBS: 20 mM sodium citrate, 147 mM NaCl, 4.5 mM KCl). A portion of this CBS was removed and this aliquot was made into CBS^+++ by addition of freshly dissolved DTT to 1 mM, TCEP pH 8.0 to 1 mM, and MnCl2 to 10 mM followed by pH adjustment to 8.0 using 1 M sodium hydroxide. CBS^+++ was then sterile filtered and placed on ice. A further portion of CBS was removed and the above reagents were added in addition to bovine serum albumin at 0.2% w/v to produce CBSFF^+++, followed by adjustment of pH to 8.0 with 1 M sodium hydroxide and the solution was again sterile filtered and placed on ice. The remainder (and bulk) of the CBS was used to produce CBSF by addition of 0.1% w/v BSA with adjustment of pH to 8.0 using 1 M sodium hydroxide, and this solution was also sterile filtered, and 25 mL were retained at room temperature, with the bulk of the solution transferred to ice.
Determination of apparent Tm was performed using thermal melt. 130 AL of the ice-cold ammonium sulfate precipitates of HAB variants MBP-636 (“WT”), ΔN-HAB1^T+, MBP-724, MBP-725, and MBP-726 were pelleted in a microcentrifuge for 5 minutes at 17,000 g.
The supernatant was removed by pipette, discarded, and the pellet resuspended in an equivalent volume of ice-cold CBS^+++. Zeba™ spin desalting columns (Thermo) were equilibrated with CBS^+++ and the resuspended HABs were desalted and placed on ice. Each HAB was diluted to 400 nM concentration in CBS^+++ and aliquoted into PCR tubes at a 50 μL volume. These tubes were distributed into the blocks of a pair of Eppendorf Mastercycler X50i thermocyclers programmed for a thermal gradient as follows (in ° C.): (Machine #1 Gradient 30.0 to 60.0-30.0, 35.4, 39.3, 46.8, 50.6, 54.5, 60.0, Machine #2 Gradient 65.0 to 95.0-65.0, 70.4). The HAB aliquots were held at these temperatures for 30 minutes, followed by cooling to 4° C. in the thermocycler blocks. Once the aliquots had cooled, they were transferred to racks on ice and SO AL of CBSFF^+++ was added, such that each HAB was now at a concentration of 200 nM (10X) in CBSF^+++. The heat treated HAB aliquots were left on ice until the remainder of the labeling reactions were set up, about 1 hour. Labeling reactions were performed, measured, and analyzed as described previously (Steiner et al. 2020).

PYR1^M/ΔN-HAB1^T+ = biological target: T1, PYR1^M/ΔN-HAB1^T+ (Arabidopsis thaliana, UniProt O49686, H60P/N90S); assay: PYR1 ELISA-like plate assay, immobilized PYR1^M with biotinylated ΔN-HAB1^T+; type: binding; settings: for Amax [AU 450 nm]: global parameter
T1 construct: made in house; host or cells: E. coli
Description: PYR1 was immobilized overnight in clear plates, blocked with KPL milk diluent in buffer CBS ^17 (CBSM). All binding reactions were performed using CBSM. Detection was performed via binding a streptavidin-HRP conjugate to biotinylated ΔN-HAB1^T+ followed by incubation with a commercial TMB reagent. Lower limits of detection (LODs) were determined by linear regression of the response data in the low linear range using the formula LOD=3σy/m, where m is the slope of the response line and σy is the standard error of the y intercept using data combined from biological replicates.
Unconjugated 6×His-MBP-PYR1 variants were immobilized to Microlon clear plates (655081) using 100 μL of CBS without pH modification, at a protein concentration of 100 μg mL^−1, or 1.57 AM at 4° C. overnight. Wells assigned as no PYR controls received only CBS. Plates were sealed using Microseal B adhesive sealers (BioRad MSB-1001). The following day, the solutions were decanted by flicking and all wells were washed twice with 300 μL of CBS. Blocking was performed using 300 μL of KPL milk diluent/concentrate (SeraCare 5140-0011) diluted 1:20 according to manufacturer's protocol, hereafter referred to as CBSM, incubated at room temperature for 2 hours, during which time all other components of the assays were diluted and assembled in 96 well PCR plates (Biorad HSP9601). Binding reactions were assembled from 88 μL of CBSM, 2 AL of 50× concentrate of ligand, dissolved in anhydrous ethanol for ABA, or anhydrous DMSO for all other compounds, with 10 μL of HAB to be added. Blocked plates were decanted by flicking and were washed twice with 300 μL of CBSM, followed by vigorous tamping on a pad of paper towels. The sole exception to the pre-assembly was biotinylated ΔN-HAB1^T+, where 130 AL of ammonium sulfate precipitate was pelleted at 17,000 g for 10 minutes, and the supernatant removed. The pellet was stored on ice until the blocked and washed plates were ready to receive the binding reactions. ΔN-HAB1^T+ was exchanged into CBSM with 1 mM DTT and 1 mM TCEP (CBSM++) using Zeba™ spin desalting columns (Thermo) were equilibrated with CBSM++. ΔN-HAB1^T+ was diluted to 10× the final binding reaction concentration and was immediately added to the pre-assembled assays in PCR plates, which were mixed by pipetting and transferred to the washed, blocked Microlon plates. Microlon plates were transferred to a plate shaker (Heidolph Titramax 1000) for 30 minutes at room temperature with shaking at 800 rpm. Plates were decanted by flicking and were washed three times with 300 μL of CBSM, followed by vigorous tamping on a pad of paper towels. Detection was enabled by addition of 100 μL of streptavidin-horseradish peroxidase (Thermo, SA10001), diluted 1:25,000 into CBSM, incubated in the above plate shaker for 10 minutes. This was decanted by flicking and washed three times with 300 AL of CBSM and by vigorous tamping on a pad of paper towels. Bound HAB was detected through addition of 50 μL 1-Step™ Ultra TMB-ELISA Substrate Solution (Thermo, 34028), incubated in the above plate shaker for 15 minutes (PYR1^M(N90S/H60P) with ABA, PYR1 ^WIN-M and PYR1^4F-M. in specificity assays to avoid overdevelopment of positive control), or for 30 minutes (PYR1^N90S/MANDI with mandipropamid, and PYR1^WIN-M and PYR1^4F-M under ligand titrations). TMB development was quenched by addition of 50 μL of 2M sulfuric acid and plates were read at 450 nm using a Biotek Synergy H1 Hybrid multimode plate reader. Estimates of Kd,eff were performed using Graphpad Prism 8.4.3 using the specific binding with Hill slope nonlinear regression function. Best fits for Kd1 and Kd2 were determined from global nonlinear fitting of the ELISA data using a custom script written in MatLab 2019b.

T1 sequence (O49686 whole entry H60P/N90S, other chains not shown): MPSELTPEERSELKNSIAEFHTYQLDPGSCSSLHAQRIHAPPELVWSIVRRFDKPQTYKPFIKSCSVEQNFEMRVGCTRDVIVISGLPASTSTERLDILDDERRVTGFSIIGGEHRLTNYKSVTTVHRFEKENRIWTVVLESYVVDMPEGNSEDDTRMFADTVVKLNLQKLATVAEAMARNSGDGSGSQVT

For `CCOP(=O)(OCC)O/C(=C\Cl)c1ccc(Cl)cc1Cl` [chlorfenvinphos], the “affinity of receptors obtained, but not lower” value ([1]; after optimization) was 10 µM.
For “WT (636): 6 × His-MBP-ΔN-HAB1 (C186S, C274S)”, the “Phosphatase Activity (% of 636 at 50 mM p-NPP)” value ([2]; Biorep 1) was 100 ± 0.4%, the “Phosphatase Activity (% of 636 at 50 mM p-NPP)” value ([2]; Biorep 2) was 100 ± 0.8% and the “Tm, app (° C.)” value ([3]; Biorep 1) was 44.8 °C. The “Tm, app (° C.)” value ([3]; Biorep 2) was 38.1 °C.
With “725: 6 × His-MBP-ΔN-HAB1 (C186S, D199A, D204A, S209V, D287E, S292N, S342A, N377A, N439S) [compound 725]” the “Phosphatase Activity (% of 636 at 50 mM p-NPP)” value ([2]; Biorep 1) was 0.25 ± 0.01%, the “Phosphatase Activity (% of 636 at 50 mM p-NPP)” value ([2]; Biorep 2) was 0.003 ± 0.004% and the “Tm, app (° C.)” value ([3]; Biorep 1) was 50.7 °C. For the same molecule, the “Tm, app (° C.)” value ([3]; Biorep 2) was 45.5 °C.
For `CNC(=O)CSP(=S)(OC)OC` [dimethoate], the “affinity of receptors obtained, but not lower” value [1] was 10 µM.
`CC1=CC(=O)CC(C)(C)[C@@]1(O)/C=C/C(C)=C\C(=O)O` [ABA, abscisic acid] gave a Kd (PYR1^M/ΔN-HAB1^T+; global nonlinear fit, PYR1^M/ABA/ΔN-HAB1^T+ system, Biorep 1, read-out: KD1) of 820 nM, a Kd (PYR1^M/ΔN-HAB1^T+; global nonlinear fit, PYR1^M/ABA/ΔN-HAB1^T+ system, Biorep 2, read-out: KD1) of 780 nM and a Kd (PYR1^M/ΔN-HAB1^T+; global nonlinear fit, PYR1^M/ABA/ΔN-HAB1^T+ system, Biorep 3, read-out: KD1) of 2090 nM. It also gave a Kd (PYR1^M/ΔN-HAB1^T+; global nonlinear fit, KD2 = binding constant of HAB1 variant (ΔN-HAB1^T+) for PYR1^M with ABA, Biorep 1, read-out: KD2) of 8 nM, a Kd (PYR1^M/ΔN-HAB1^T+; global nonlinear fit, KD2 = binding constant of HAB1 variant (ΔN-HAB1^T+) for PYR1^M with ABA, Biorep 2, read-out: KD2) of 4 nM and a Kd (PYR1^M/ΔN-HAB1^T+; global nonlinear fit, KD2 = binding constant of HAB1 variant (ΔN-HAB1^T+) for PYR1^M with ABA, Biorep 3, read-out: KD2) of 2 nM. The “Amax [AU 450 nm]” value (PYR1^M/ΔN-HAB1^T+; PYR1^M/ABA/ΔN-HAB1^T+ system, Biorep 1) was 2 AU 450 nm, the “Amax [AU 450 nm]” value (PYR1^M/ΔN-HAB1^T+; PYR1^M/ABA/ΔN-HAB1^T+ system, Biorep 2) was 2.8 AU 450 nm and the “Amax [AU 450 nm]” value (PYR1^M/ΔN-HAB1^T+; PYR1^M/ABA/ΔN-HAB1^T+ system, Biorep 3) was 2 AU 450 nm. The “lower limit of detection (LOD)” value (PYR1^M/ΔN-HAB1^T+; optimized ELISA-like system, PYR1^M) was 2 nM and 0.7 ng/mL and the Kd (PYR1^M/ΔN-HAB1^T+; optimized ELISA-like system, PYR1^M, read-out: effective Kd) was 9.7 nM.
With “724: stabilized dead 6 × His-MBP-ΔN-HAB1 variant with D243A instead of D204A [compound 724]” the “Phosphatase Activity (% of 636 at 50 mM p-NPP)” value ([2]; Biorep 1) was 0.22 ± 0.005%, the “Phosphatase Activity (% of 636 at 50 mM p-NPP)” value ([2]; Biorep 2) was 0.01 ± 0.001% and the “Tm, app (° C.)” value ([3]; Biorep 1) was 54.1 °C. The “Tm, app (° C.)” value ([3]; Biorep 2) was 44.8 °C.
